In patent US8476305B2, “Therapeutic agent or prophylactic agent for inflammatory bowel disease comprising amino alcohol derivative as active ingredient” (Kyorin Pharmaceutical Co., Ltd., priority 2008, dated 2013):

Test system: SCID CD4+ CD45RBhigh T cell transfer colitis model
Test: SCID CD4+ CD45RBhigh T cell transfer colitis model
Format: in vivo, SCID mice
Conditions: for Total number of leukocytes (cells/μL): blood on the day after final administration; for Total number of leukocytes (cells/μL) / Change ratio of body weight (%) On the fourth week / Change ratio of body weight (%) On the third week: mean ± standard error
Source text: SCID CD4^+ CD45RB^high T cell transfer colitis model has been reported as a model resembling to Crohn's disease due to its histopathological characteristics and the produced cytokines (Powrie F et al, Immunity, 1, 553-562, 1994). In addition, this model has also been used for evaluation of a medicine which is used in the treatment of inflammatory bowel disease and its effectiveness has been reported (Liu Z et al., J. Autoimmunl., 29, 187-194, 2007).
C.B-17/Icr-scid/scid Jcl (SCID mice) (female, 8 weeks of age, mouse to be transferred) and BALB/c Cr Slc (BALB/c mice) (female, 8 weeks of age, mouse for transfer cell preparation) were obtained and used in the test. CD4^+ CD45RB^high T cells (naive T cells) prepared from the spleen of BALB/c mice were transferred intraperitoneally into the SCID mice at a concentration of 3×10^5 cells/body, and then colitis was induced by breeding it for 4 weeks. Preparation of the CD4^+ CD45RB^high T cells was carried out in accordance with the method of Uraushihara et al. (J. Immunol., 171, 708-716, 2003) and FACSAriaCell Sorter (Becton Dickinson Japan) was used as a cell separator.
The compound produced in Example 27 (compound 27) was dissolved in distilled water and orally administered at doses of 0.3 mg/kg, 1 mg/kg and 3 mg/kg, once a day for 4 weeks starting on the preceding day of cell transfer. Distilled water alone was administered to the vehicle group. Body weight was determined every day during the administration period. The change ratio (%) of the body weight on the determination day was calculated based on the body weight on the day of the start of administration. On the next day of final administration, blood was collected and the large intestine was extracted. The total number of leukocytes was measured using the collected blood. After fixing the extracted large intestine with formalin, tissue sections were prepared and hematoxylin-eosin staining was carried out. Evaluation was performed in accordance with the scoring system (Uraushihara K et al., J. Immunol., 171, 708-716, 2003). That is, the large intestine was roughly divided into 3 regions (proximal region, middle region and distal region), and scoring was carried out on the 3 layers, which are mucosa, submucosa and muscularis, of each region. By totaling the obtained scores of each region, the value having the highest total score among the three regions was used as the score of the individual. The change ratio of the body weight and the total number of leukocytes were shown by mean±standard error and the pathological score was shown by median.

[1] = 0.3 mg/kg orally once a day for 4 weeks
[2] = 1 mg/kg orally once a day for 4 weeks
[3] = 3 mg/kg orally once a day for 4 weeks
[4] = in comparison with the vehicle group, result in words

C[C@](N)(CO)CCCc1ccc(Sc2cccc(C(F)(F)F)c2)cc1Cl.Cl [Compound 27, (R)-2-amino-5-[2-chloro-4-(3-trifluoromethylphenylthio)phenyl]-2-methylpentan-1-ol hydrochloride]
Total number of leukocytes (cells/μL) [1]: 2733 ± 561 cells/μL
Change ratio of body weight (%) On the fourth week [1]: −1.0 ± 2.2%
Pathological score (0.3 mg/kg orally once a day for 4 weeks, large intestine histology, median): 5
Change ratio of body weight (%) On the third week [1]: 1.1 ± 1.4 %
Total number of leukocytes (cells/μL) [2]: 1980 ± 241 cells/μL
Change ratio of body weight (%) On the fourth week [2]: −1.4 ± 2.0%
Pathological score (1 mg/kg orally once a day for 4 weeks, large intestine histology, median): 5
Change ratio of body weight (%) On the third week [2]: 1.5 ± 0.8 %
Total number of leukocytes (cells/μL) [3]: 1720 ± 327 cells/μL
Change ratio of body weight (%) On the fourth week [3]: −0.8 ± 2.0 %
Pathological score (3 mg/kg orally once a day for 4 weeks, large intestine histology, median): 3.5
Change ratio of body weight (%) On the third week [3]: 0.5 ± 1.2 %
body weight loss [4]: significantly suppressed
total number of leukocytes [4]: significantly suppressed
effect on the SCID CD4+ CD45RBhigh T cell transfer colitis model (overall conclusion in words): shows the suppressive effect
Pathological score (result in words): suppressive effect was found
